Experimental data: paper PMC12071598, “Piperazine-Substituted Pyranopyridines Exhibit Antiproliferative Activity and Act as Inhibitors of HBV Virion Production” (International Journal of Molecular Sciences, 2025)
Where two headings read alike, the source gives them in different places.

Key:
[1] = system: DU145; settings: discussed for DU145; cited from earlier work
[2] = system: hepatitis B virus (HBV); experiment: microbe, parasite or virus in culture; type: cell-based; settings: for log reduction at 1 µM / log reduction at 10 µM: Hepatitis B virus, 144 h; for Extracellular HBV DNA (Δlog10): 1 µM, 6 days treatment, conditioned medium (virion production)
[3] = system: HeLa; experiment: Antiproliferative activity, MTT assay, HeLa; type: cell-based; settings: Homo sapiens, HeLa cervix carcinoma, 72 h
[4] = system: K562; experiment: Antiproliferative activity, MTT assay, K562; type: cell-based; settings: Homo sapiens, K562 chronic myeloid leukemia, 72 h
[5] = system: SH-SY5Y; experiment: Antiproliferative activity, crystal violet staining, SH-SY5Y; type: cell-based; settings: Homo sapiens, SH-SY5Y neuroblastoma, 72 h
[6] = system: A549; experiment: Antiproliferative activity, MTT assay, A549; type: cell-based; settings: Homo sapiens, A549 lung carcinoma, 72 h
[7] = system: DU145; experiment: Antiproliferative activity, MTT assay, DU145; type: cell-based; settings: Homo sapiens, DU-145, DU145 prostate carcinoma, 72 h
[8] = system: HepaRG; experiment: Cytotoxicity towards non-tumor differentiated HepaRG cells, MTT; type: cell-based, human; settings: concentration decreasing number of viable cells by 50%; for IC50: Homo sapiens
[9] = Cytotoxicity by MTS assay in MDCK cells; type: cell-based; settings: dog, read-out: Influenza A Virus CC50
Description: Production of influenza A virus (H1N1) stock and its infection of MDCK cells, as well as infection of Vero E6 cells with SARS-CoV-2, were described previously. Cytotoxicity of the compounds towards MDCK and VeroE6 cells was assessed by seeding 18,000 cells/well of […] plates in 0.1 mL DMEM, treating with the compounds for 66 h, and measuring cell viability by MTS assay. As positive controls, oseltamivir and N-hydroxicytidine were used (obtained from Sigma).
The compounds were added at non-toxic concentrations in serum-free DMEM to the respective cells; one hour later, the serial 10-fold dilutions of influenza virus or SARS-CoV-2 were added in serum-free medium, and antiviral activity was determined by the reduction in the infectious titer of the virus by cytopathic action (CPE). Calculation of 50% cytotoxic concentration (CC50) and 50% effective concentration (IC50) was performed by standard methods using Microsoft Excel 5.0 and GraphPad Prism 8 (GraphPad Software Inc., Boston, MA, USA).

[10] = system: SARS-CoV-2; experiment: microbe, parasite or virus in culture; type: cell-based
[11] = system: PV1; experiment: microbe, parasite or virus in culture; type: cell-based, poliovirus type 1; settings: Enterovirus C, 48 h, read-out: PV1 IC50, µM
[12] = system: NDV; experiment: microbe, parasite or virus in culture; type: cell-based, Newcastle disease virus; settings: avian paramyxovirus 1, 48 h, read-out: NDV IC50, µM
[13] = system: HSV-1; experiment: microbe, parasite or virus in culture; type: cell-based, herpes simplex virus type 1; settings: Human alphaherpesvirus 1, 48 h, read-out: HSV-1 IC50, µM
[14] = system: VV; experiment: microbe, parasite or virus in culture; type: cell-based; settings: Orthopoxvirus vaccinia, 48 h, read-out: VV IC50, µM
[15] = system: Influenza A virus; experiment: microbe, parasite or virus in culture; type: cell-based, influenza A virus (H1N1)
[16] = system: A549 cells; experiment: Intracellular ROS assay, DCFH2-DA in A549 cells; type: cell-based; settings: A549, 10 µM, 72 h
Description: As cell death is often triggered by increased production of reactive oxygen species (ROS), the next step was to evaluate if our compounds act as pro-oxidants. ROS production was accessed using cell-permeable redox sensitive DCFH2-DA dye. […] As one of the main sites of ROS production is mitochondria, we also evaluated their membrane potential during treatment with either DO11-46 or DO11-48. […] Lysosome activation often accompany late stages of apoptosis, which is in good accordance with our data on the induction of caspase3/7 activity.
Pro-oxidant activity of the compounds was studied by quantification of ROS production using a cell-permeable fluorogenic probe 2′,7′-dichlorodihydrofluorescein diacetate (DCFH2-DA). A549 cells were seeded on a 48-well plate at a density of 10,000 cells/well. Twenty-four hours later, the compounds were added to 10 µM concentration in quadruplicate, and the cells were kept for 72 h. As a positive control, A549 cells were treated with 1 mM H2O2 for 2 h prior analysis. Then, media were replaced with the fresh FBS-lacking DMEM supplemented with 25 µM DCFH2-DA. After 45 min incubation, the cells were washed 10 times with 500 µL PBS, resuspended in 200 µL PBS and transferred to a black 96-well plate. The fluorescence intensities (FLIs) were measured using CHAMELEON V microplate reader with excitation at 485 nm and emission at 535 nm.

[17] = read-out: Extracellular HBV DNA (Δlog10)
[18] = read-out: Intracellular Total HBV RNA (Δlog10)
[19] = Severe acute respiratory syndrome coronavirus 2, Vero C1008, read-out: SARS-CoV-2 IC50, µM

SMILES | log reduction at 1 µM [2, 17] | log reduction at 10 µM [2, 17] | log reduction at 1 µM [2, 18] | log reduction at 10 µM [2, 18] | IC50 [3] [µM] | IC50 [4] [µM] | IC50 [5] [µM] | IC50 [6] [µM] | IC50 [7] [µM] | IC50 [8] [µM] | CC50 at 66 h [9] [µM] | IC50 [10, 19] [µM] | IC50 [11] [µM] | IC50 [12] [µM] | IC50 [13] [µM] | IC50 [14] [µM] | Influenza A Virus Δlgmax [15] | SARS-CoV-2 Δlgmax [10] | further results
Fc1ccc(C(c2ccc(F)cc2)N2CCNCC2)cc1 [1-bis(4-fluorophenyl)methylpiperazine] |  |  |  |  |  |  |  |  |  |  |  |  |  |  |  |  |  |  | GI50 [1]: 1.8 µM
Nc1ccn([C@@H]2CS[C@H](CO)O2)c(=O)n1 [3TC, Lamivudine, reference compound] | 0.93 | 1.04 | < 0.5 | < 0.5 |  |  |  |  |  |  |  |  |  |  |  |  |  |  | 
O=c1[nH]cc(F)c(=O)[nH]1 [5-Fluorouracil, reference compound] |  |  |  |  | 1.2 ± 0.3 | 1.3 ± 0.3 | 1.5 ± 0.2 |  |  |  |  |  |  |  |  |  |  |  | 
CC1(C)Cc2c(C#N)c(SCC(N)=O)nc(N3CCNCC3)c2CO1 [DO11-37, 2-[(5-Cyano-3,3-dimethyl-8-piperazin-1-yl-3,4-dihydro-1H-pyrano[3,4-c]pyridin-6-yl)thio]acetamide] | 1.97 ± 0.03 | 2.32 ± 0.16 | < 0.5 | < 0.5 | 133 ± 38 | 91.4 ± 29.6 | 99.4 ± 21.4 | 294 ± 35.9 | 225 ± 52.4 | 968 ± 87.8 | 1680 | > 200 | > 300 | > 300 | > 300 | > 300 |  |  | IC50 (µM) HepaRG [8]: almost non-toxic; Extracellular HBV DNA (Δlog10) [2]: significantly reduced levels of virion production
CC1(C)Cc2c(C#N)c(SCc3ccccc3Cl)nc(N3CCNCC3)c2CO1 [DO11-42, 6-[(2-Chlorobenzyl)thio]-3,3-dimethyl-8-piperazin-1-yl-3,4-dihydro-1H-pyrano[3,4-c]pyridine-5-carbonitrile] | 2.52 ± 0.36 | 2.31 ± 0.29 | < 0.5 | 0.53 ± 0.31 | 1.9 ± 0.3 | 1.5 ± 0.8 | 4.5 ± 1.8 | 7 ± 1.9 | 1.3 ± 0.2 | 24.5 ± 2.8 | 440 | > 15 | > 7.5 | > 7.5 | > 7.5 | > 7.5 | 0.5 | 0 | Extracellular HBV DNA (Δlog10) [2]: significantly reduced levels of virion production; ROS generation [16]: significantly increased ROS generation
CC(=O)c1ccc(NC(=O)CSc2nc(N3CCNCC3)c3c(c2C#N)CC(C)(C)OC3)cc1 [DO11-50, N-(4-acetylphenyl)-2-[(5-cyano-3,3-dimethyl-8-piperazin-1-yl-3,4-dihydro-1H-pyrano[3,4-c]pyridin-6-yl)thio]acetamide] | < 0.5 | < 0.5 | < 0.5 | < 0.5 | 74.5 ± 3.5 | 45.6 ± 20 | 13.2 ± 4.3 | 45.8 ± 12.6 | 26.7 ± 8.4 | 42.4 ± 8.3 | 1270 | > 15 | > 5 | > 5 | > 5 | > 5 | 0 | 0 | 
O=c1nc(NO)ccn1[C@@H]1O[C@H](CO)[C@@H](O)[C@H]1O [N-HydroxyC, N-hydroxicytidine, reference compound] |  |  |  |  |  |  |  |  |  |  |  |  |  |  |  |  |  | 5.0 | IC50 ([10]; read-out: SARS-CoV-2 IC50): 0.5 µM
CCOC(=O)C1=C[C@@H](OC(CC)CC)[C@H](NC(C)=O)[C@@H](N)C1 [Oseltamivir, reference compound] |  |  |  |  |  |  |  |  |  |  | > 10 |  |  |  |  |  | 6.0 |  | IC50 ([15]; Influenza A virus, MDCK, read-out: Influenza A Virus IC50, µM): 0.02 µM
CNC(=O)c1cc(Oc2ccc(NC(=O)Nc3ccc(Cl)c(C(F)(F)F)c3)cc2)ccn1 [Sorafenib, reference compound] |  |  |  |  |  |  | 40 ± 10 |  |  | > 100 |  |  |  |  |  |  |  |  | 
FC(F)(F)c1ccc(CN2CCNCC2)cc1 [[4-(trifluoromethyl)benzyl]piperazine] |  |  |  |  |  |  |  |  |  |  |  |  |  |  |  |  |  |  | GI50 [1]: 1.6 µM
